test: Replicon Assay (luciferase, ET cell line); format: cell-based, HCV; conditions: Hepatitis C virus; % inhibition of replication relative to no compound control, test concentration of 10 μM; ET cells, luciferase read 48-72 hours; read-out: % inhib at 10 uM
Method: A cell line, ET (Huh-lucubineo-ET) was used for screening of compounds of the present invention for HCV RNA dependent RNA polymerase. The ET cell line was stably transfected with RNA transcripts harboring a I389luc-ubi-neo/NS3-3′/ET; replicon with firefly luciferase-ubiquitin-neomycin phosphotransferase fusion protein and EMCV-IRES driven NS3-5B polyprotein containing the cell culture adaptive mutations (E1202G; T1280I; K1846T) (Krieger at al, 2001 and unpublished). The ET cells were grown in DMEM, supplemented with 10% fetal calf serum, 2 mM Glutamine, Penicillin (100 IU/mL)/Stretomycin (100 μg/mL), 1× nonessential amino acids, and 250 μg/mL G418 (“Geneticin”). They were all available through Life Technologies (Bethesda, Md.). The cells were plated at 0.5−1.0×10^4 cells/well in the 96 well plates and incubated for 24 hrs before adding nucleoside analogs. […] Luciferase activity were measured 48-72 hours later by adding a lysis buffer and the substrate (Catalog number Glo-lysis buffer E2661 and Bright-Glo luciferase system E2620 Promega, Madison, Wis.). Cells should not be too confluent during the assay. Percent inhibition of replication was plotted relative to no compound control. Under the same condition, cytotoxicity of the compounds was determined using cell proliferation reagent, WST-1 (Roche, Germany). The compounds showing antiviral activities, but no significant cytotoxicities were chosen to determine IC50 and TC50. For these determinations, 10 concentration of each compound were used. Concentrations for test compounds typically span a range of 500 fold. IC50 and TC50 values were calculated by fitting % inhibition at each concentration (I) to the following equation: % inhibition=100%/[1+10^(log IC50−log(I))*b] where b is Hill's coefficient.

Which inhibition at 10 µM does the source give for `CC(=O)c1ccc(-c2cccc(NC(=O)[C@@H]3CCCN3C(=O)OCc3ccccc3)c2)s1` [Compound 6048, 2-[3-(5-Acetyl-thiophen-2-yl)-phenylcarbamoyl]-pyrrolidine-1-carboxylic acid benzyl ester] here?
The inhibition at 10 µM was 36.9%.

Which inhibition at 10 µM does the source give for `CC1=NN(c2ccccc2)C(=O)/C1=C\c1ccc(NC(=O)[C@@H]2CCCN2C(=O)OCc2ccccc2)cc1` (stereo in doubt) [Compound 6005, 2-[4-(3-Methyl-5-oxo-1-phenyl-1,5-dihydro-pyrazol-4-ylidenemethyl)-phenylcarbamoyl]-pyrrolidine-1-carboxylic acid benzyl ester] here?
The inhibition at 10 µM was 3.63%.

For `O=C(Nc1cccc(-c2ccc3c(c2)OCO3)c1)[C@@H]1CCCN1C(=O)OCc1ccccc1` [Compound 6043, 2-(3-Benzo[1,3]dioxol-5-yl-phenylcarbamoyl)-pyrrolidine-1-carboxylic acid benzyl ester], which inhibition at 10 µM is on record?
Its inhibition at 10 µM is 93.9%.

For `COc1cccc(-c2cccc(NC(=O)[C@@H]3CCCN3C(=O)OCc3ccccc3)c2)c1OC` [Compound 6026, 2-(2′,3′-Dimethoxybiphenyl-3-yl-carbamoyl)-pyrrolidine-1-carboxylic acid benzyl ester], which inhibition at 10 µM is on record?
The inhibition at 10 µM was 98.7%.

For `O=C(Nc1ccc(Cc2nc3ccccc3[nH]2)cc1)[C@@H]1CCCN1C(=O)OCc1ccccc1` (stereo in doubt) [Compound 6038, 2-[4-(1H-Benzoimidazol-2-ylmethyl)-phenylcarbamoyl]-pyrrolidine-1-carboxylic acid benzyl ester], which inhibition at 10 µM is on record?
Its inhibition at 10 µM is 9.34%.

For `Cc1c(Br)cc2[nH]c(Cc3ccc(NC(=O)[C@@H]4CCCN4C(=O)OCc4ccccc4)cc3)nc2c1C` (stereo in doubt) [Compound 6006, 2-[4-(6-Bromo-4,5-dimethyl-1H-benzoimidazol-2-ylmethyl)-phenylcarbamoyl]-pyrrolidine-1-carboxylic acid benzyl ester], which inhibition at 10 µM is on record?
The inhibition at 10 µM was 70%.

With `O=C(Nc1cccc(Oc2ccccc2)c1)[C@@H]1CCCN1C(=O)OCc1ccccc1` [Compound 6034, 2-(3-Phenoxy-phenylcarbamoyl)-pyrrolidine-1-carboxylic acid benzyl ester] as the compound, how does the inhibition at 10 µM read?
The inhibition at 10 µM was 26.7%.

With `O=C(Nc1cccc(-c2ccc([N+](=O)[O-])cc2)c1)[C@@H]1CCCN1C(=O)OCc1ccccc1` [Compound 6053, 2-(4′-Nitro-biphenyl-3-ylcarbamoyl)-pyrrolidine-1-carboxylic acid benzyl ester] as the compound, how does the inhibition at 10 µM read?
Its inhibition at 10 µM is 93.3%.

Which inhibition at 10 µM does the source give for `O=C(Nc1cccc(-c2cccs2)c1)[C@@H]1CCCN1C(=O)OCc1ccccc1` [Compound 6022, 2-(3-Thiophen-2-yl-phenylcarbamoyl)-pyrrolidine-1-carboxylic acid benzyl ester] here?
The inhibition at 10 µM was 87.3%.

Which inhibition at 10 µM does the source give for `COc1ccc(OC)c(-c2ccc(NC(=O)[C@@H]3CCCN3C(=O)OCc3ccccc3)cc2)c1` [Compound 6007, 2-(2′,5′-Dimethoxy-biphenyl-4-ylcarbamoyl)-pyrrolidine-1-carboxylic acid benzyl ester] here?
Its inhibition at 10 µM is 93.4%.

With `O=C(Nc1ccc(-c2cccc(COc3ccccc3)c2)cc1)[C@@H]1CCCN1C(=O)OCc1ccccc1` [Compound 6021, 2-(3′-Phenoxymethyl-biphenyl-4-ylcarbamoyl)-pyrrolidine-1-carboxylic acid benzyl ester] as the compound, how does the inhibition at 10 µM read?
Its inhibition at 10 µM is 56.1%.

Which inhibition at 10 µM does the source give for `O=C(NCc1cccc(-c2cccc(NC(=O)[C@@H]3CCCN3C(=O)OCc3ccccc3)c2)c1)C1CC1` [Compound 6311, 2-{3′-[(Cyclopropanecarbonyl-amino)-methyl]-biphenyl-3-ylcarbamoyl}-pyrrolidine-1-carboxylic acid benzyl ester] here?
The inhibition at 10 µM was 94.2%.

With `N#Cc1cccc(-c2cccc(NC(=O)[C@@H]3CCCN3C(=O)OCc3ccccc3)c2)c1` [Compound 6307, 2-(3′-Cyano-biphenyl-3-ylcarbamoyl)-pyrrolidine-1-carboxylic acid benzyl ester] as the compound, how does the inhibition at 10 µM read?
The inhibition at 10 µM was 32.3%.

Which inhibition at 10 µM does the source give for `O=C(Nc1cccc(-c2ccc3ncsc3c2)c1)[C@@H]1CCCN1C(=O)OCc1ccccc1` [Compound 6304, 2-(3-Benzothiazol-6-yl-phenylcarbamoyl)-pyrrolidine-1-carboxylic acid benzyl ester] here?
Its inhibition at 10 µM is 70.4%.

Which inhibition at 10 µM does the source give for `O=C(NCc1ccc(-c2cccc(NC(=O)[C@@H]3CCCN3C(=O)OCc3ccccc3)c2)cc1)C1CC1` [Compound 6308, 2-{4′-[(Cyclopropanecarbonyl-amino)-methyl]-biphenyl-3-ylcarbamoyl}-pyrrolidine-1-carboxylic acid benzyl ester] here?
Its inhibition at 10 µM is 56.2%.

With `O=C(Nc1cc(Oc2ccc3oc4c(c3c2)CCCC4)cc([N+](=O)[O-])c1)[C@@H]1CCCN1C(=O)OCc1ccccc1` [Compound 6032, 2-[3-Nitro-5-(6,7,8,9-tetrahydro-dibenzofuran-2-yloxy)-phenylcarbamoyl]-pyrrolidine-1-carboxylic acid benzyl ester] as the compound, how does the inhibition at 10 µM read?
The inhibition at 10 µM was 44.5%.

Which inhibition at 10 µM does the source give for `Nc1cc(-c2cccc(NC(=O)[C@@H]3CCCN3C(=O)OCc3ccccc3)c2)cc(C(F)(F)F)c1` [Compound 6095, 2-(3′-Amino-5′-trifluoromethyl-biphenyl-3-ylcarbamoyl)-pyrrolidine-1-carboxylic acid benzyl ester] here?
Its inhibition at 10 µM is 61.6%.

With `Nc1cccc(-c2cccc(NC(=O)[C@@H]3CCCN3C(=O)OCc3ccccc3)c2)c1` [Compound 6054, 2-(3′-Amino-biphenyl-3-ylcarbamoyl)-pyrrolidine-1-carboxylic acid benzyl ester] as the compound, how does the inhibition at 10 µM read?
The inhibition at 10 µM was 97.7%.

Which inhibition at 10 µM does the source give for `NC(=O)Nc1cccc(-c2cccc(NC(=O)[C@@H]3CCCN3C(=O)OCc3ccccc3)c2)c1` [Compound 6093, 2-(3′-Ureido-biphenyl-3-ylcarbamoyl)-pyrrolidine-1-carboxylic acid benzyl ester] here?
The inhibition at 10 µM was 98.1%.

With `COc1ccc2nc(NC(=O)c3ccc(NC(=O)[C@@H]4CCCN4C(=O)OCc4ccccc4)cc3)sc2c1` [Compound 6030, 2-[4-(6-Methoxy-benzothiazol-2-ylcarbamoyl)-phenylcarbamoyl]-pyrrolidine-1-carboxylic acid benzyl ester] as the compound, how does the inhibition at 10 µM read?
The inhibition at 10 µM was 42.2%.

With `O=C(NC1CC1)c1cccc(-c2cccc(NC(=O)[C@@H]3CCCN3C(=O)OCc3ccccc3)c2)c1` [Compound 6310, 2-(3′-Cyclopropylcarbamoyl-biphenyl-3-ylcarbamoyl)-pyrrolidine-1-carboxylic acid benzyl ester] as the compound, how does the inhibition at 10 µM read?
Its inhibition at 10 µM is 78.4%.

For `O=C(Nc1ccc(-c2nnc(-c3ccco3)o2)cc1)[C@@H]1CCCN1C(=O)OCc1ccccc1` [Compound 6025, 2-[4-(5-Furan-2-yl-[1,3,4]oxadiazol-2-yl)-phenylcarbamoyl]-pyrrolidine-1-carboxylic acid benzyl ester], which inhibition at 10 µM is on record?
Its inhibition at 10 µM is 5.45%.

With `Cc1ccc2cc(-c3cccc(NC(=O)[C@@H]4CCCN4C(=O)OCc4ccccc4)c3)ccc2n1` [Compound 6085, 2-[3-(2-Methyl-quinolin-6-yl)-phenylcarbamoyl]-pyrrolidine-1-carboxylic acid benzyl ester] as the compound, how does the inhibition at 10 µM read?
The inhibition at 10 µM was 39.7%.

For `O=C(Nc1ccc(NS(=O)(=O)c2ccccc2)cc1)[C@@H]1CCCN1C(=O)OCc1ccccc1` [Compound 6002, 2-(4-Benzenesulfonylamino-phenylcarbamoyl)-pyrrolidine-1-carboxylic acid benzyl ester], which inhibition at 10 µM is on record?
Its inhibition at 10 µM is 2.69%.

For `O=C(Nc1ccc(-c2ccccc2)cc1)[C@@H]1CCCN1C(=O)OCc1ccccc1` [Compound 6035, 2-(Biphenyl-4-ylcarbamoyl)-pyrrolidine-1-carboxylic acid benzyl ester], which inhibition at 10 µM is on record?
The inhibition at 10 µM was 42.5%.

For `COc1cccc(OC)c1-c1ccc(NC(=O)[C@@H]2CCCN2C(=O)OCc2ccccc2)cc1` [Compound 6036, 2-(2′,6′-Dimethoxy-biphenyl-4-ylcarbamoyl)-pyrrolidine-1-carboxylic acid benzyl ester], which inhibition at 10 µM is on record?
The inhibition at 10 µM was 22.9%.

Which inhibition at 10 µM does the source give for `COc1ccc(-c2cccc(NC(=O)[C@@H]3CCCN3C(=O)OCc3ccccc3)c2)cc1` [Compound 6037, 2-(4′-Methoxybiphenyl-3-yl-carbamoyl)-pyrrolidine-1-carboxylic acid benzyl ester] here?
Its inhibition at 10 µM is 8.6%.

Which inhibition at 10 µM does the source give for `COc1cccc(-c2cccc(NC(=O)[C@@H]3CCCN3C(=O)OCc3ccccc3)c2)c1` [Compound 6008, 2-(3′-Methoxy-biphenyl-3-ylcarbamoyl)-pyrrolidine-1-carboxylic acid benzyl ester] here?
Its inhibition at 10 µM is 79.8%.

For `Cc1ccc(S(=O)(=O)c2ccc(Oc3cccc(NC(=O)[C@@H]4CCCN4C(=O)OCc4ccccc4)c3)cc2)cc1` (stereo in doubt) [Compound 6027, 2-{3-[4-(Toluene-4-sulfonyl)-phenoxy]-phenylcarbamoyl}-pyrrolidine-1-carboxylic acid benzyl ester], which inhibition at 10 µM is on record?
The inhibition at 10 µM was 98.1%.

Which inhibition at 10 µM does the source give for `O=C(Nc1ccc(Cc2nc3cc4ccccc4cc3[nH]2)cc1)[C@@H]1CCCN1C(=O)OCc1ccccc1` [Compound 6020, 2-[4-(1H-Naphtho[2,3-d]imidazol-2-ylmethyl)-phenylcarbamoyl]-pyrrolidine-1-carboxylic acid benzyl ester] here?
Its inhibition at 10 µM is 99.9%.

With `CC(=O)c1ccc(-c2cccc(NC(=O)[C@@H]3CCCN3C(=O)OCc3ccccc3)c2)cc1` [Compound 6052, 2-(4′-Acetyl-biphenyl-3-ylcarbamoyl)-pyrrolidine-1-carboxylic acid benzyl ester] as the compound, how does the inhibition at 10 µM read?
Its inhibition at 10 µM is 48.3%.

— patent publication US7629340B2, “N-(6-membered aromatic ring)-amido anti-viral compounds” (SmithKline Beecham Corporation, priority 2005, dated 2009)
